The numbers were not newly measured in paper PMC4895178 (Scientific Reports, 2016), which cites them from elsewhere.

For this data set the following is noted: in plasma. An excerpt:
The pioneering work of Vale et al.[8] established that residues 7 to 10 form the ph ...

For the molecule `C[C@H](N)C(=O)NCC(=O)N[C@H]1CSSC[C@@H](C(=O)O)NC(=O)[C@H](CO)NC(=O)[C@H]([C@@H](C)O)NC(=O)[C@H](Cc2ccccc2)NC(=O)[C@H]([C@@H](C)O)NC(=O)[C@H](CCCCN)NC(=O)[C@H](Cc2c[nH]c3ccccc23)NC(=O)[C@H](Cc2ccccc2)NC(=O)[C@H](Cc2ccccc2)NC(=O)[C@H](CC(N)=O)NC(=O)[C@H](CCCCN)NC1=O` [Somatostatin (SRIF), Somatostatin], the half-life is 2 to 3 min.
